Laboratory results from patent publication US8802694B2, “3,6-diazabicyclo[3.1.1]heptanes as neuronal nicotinic acetycholine receptor ligands” (Targacept, Inc., priority 2009, dated 2014).
pKi: −log10 of the molar value.

Target: T1, α6β3β4α5 (Homo sapiens, UniProt P30926+Q15825)
T1 construct: host or cells: SH-EP1
Experiment: Competition binding to α6β3β4α5 receptors in membranes of SH-EP1/α6β3β4α5 cells ([3H]-epibatidine)
Details: membrane competition binding, read-out: α6β3β4α5 Ki

Compound	pKi
O=C(C1C2C3CCC(C3)C12)N1C2CNCC1C2 (stereo not drawn)	4.00
O=C(c1cc(Cl)cc(Cl)c1)N1C2CNCC1C2	4.85
O=C(COc1ccc(Cl)c(Cl)c1)N1CC2CC(C1)N2	6.15
O=C(NCc1ccc(Cl)c(Cl)c1)N1C2CNCC1C2	5.23

Target: T2, Rat α4β2 (Rattus norvegicus, UniProt P09483+P12390)
T2 construct: Rat cortices were obtained from Analytical Biological Services; tissue Analytical Biological Services, Incorporated (ABS, Wilmington, Del.); host or cells: rat cortex (female Sprague-Dawley)
Experiment: Competition binding to rat α4β2 receptors in rat cortical membranes
Details: Rat α4β2 Ki, rat cortex membranes
Procedure: Preparation of membranes from rat tissues. Rat cortices were obtained from Analytical Biological Services, Incorporated (ABS, Wilmington, Del.). Tissues were dissected from female Sprague-Dawley rats, frozen and shipped on dry ice. Tissues were stored at −20° C. until needed for membrane preparation. […] The resulting homogenate was centrifuged at 40,000 g for 20 minutes at 4° C. and the resulting pellet was resuspended in 20 volumes of ice-cold water. After 60-minute incubation at 4° C., a new pellet was collected by centrifugation at 40,000 g for 20 minutes at 4° C. The final pellet was resuspended in preparative buffer and stored at −20° C. On the day of the assay, tissue was thawed, centrifuged at 40,000 g for 20 minutes and then resuspended in PBS (Dulbecco's Phosphate Buffered Saline, Life Technologies, pH 7.4) to a final concentration of 2-3 mg protein/mL. Protein concentrations were determined using the Pierce BCA Protein Assay kit (Pierce Biotechnology, Rockford, Ill.), with bovine serum albumin as the standard.
Competition binding to receptors in membrane preparations. […] In brief, membranes were reconstituted from frozen stocks (approximately 0.2 mg protein) and incubated for 2 h on ice in […] assay buffer (PBS) in the presence of competitor compound (0.001 nM to […]) and radioligand. [^3H]-nicotine (L-(−)-[N-methyl-3H]-nicotine, 69.5 Ci/mmol, Perkin-Elmer Life Sciences) was used for human α4β2 binding studies. [^3H]-epibatidine (52 Ci/mmol, Perkin-Elmer Life Sciences) was used for binding studies at the other receptor subtypes. […] Filters were washed 3 times and the radioactivity retained was determined by liquid scintillation counting.
Binding data analysis. Binding data were expressed as percent total control binding. Replicates for each point were averaged and plotted against the log of drug concentration.

Compound	pKi
O=C(c1cnco1)N1C2CNCC1C2	7.77
CC(C)CC(=O)N1CC2CC(C1)N2	7.15
O=C([C@H]1C[C@H]1F)N1C2CNCC1C2	9.05
O=C(CC1C=CCC1)N1CC2CC(C1)N2 (stereo not drawn)	7.47
O=C(C1CCC1)N1CC2CC(C1)N2	8.17
O=C(c1ccc(Cl)o1)N1C2CNCC1C2 [6-(2-chlorofuran-5-yl)carbonyl-3,6-diazabicyclo[3.1.1]heptane]	7.36
O=C(C1CC=CC1)N1CC2CC(C1)N2	6.59
Cc1nocc1C(=O)N1CC2CC(C1)N2	7.22
CC(C)CC(=O)N1C2CNCC1C2	7.23
O=C(C1CCC1)N1C2CNCC1C2 [6-cyclobutylcarbonyl-3,6-diazabicyclo[3.1.1]heptane]	7.59
CC1CC1C(=O)N1C2CNCC1C2 (stereo not drawn)	7.47
Cc1cc(C(=O)N2C3CNCC2C3)no1	7.30
O=C([C@H]1C[C@@H]1F)N1C2CNCC1C2	9.00
O=C(CC1CC1)N1CC2CC(C1)N2	7.77
O=C(CC1C=CCC1)N1C2CNCC1C2 (stereo not drawn)	7.15
O=C(OCCF)N1CC2CC(C1)N2 [3-(2-fluoroethoxy)carbonyl-3,6-diazabicyclo[3.1.1]heptane]	7.28
O=C(C1CCCC1)N1CC2CC(C1)N2	7.11
COCC(=O)N1CC2CC(C1)N2	7.30

Same assay, conditions: rat cortex membranes, read-out: Rat α4β2 Ki

Compound	pKi
Cc1ncoc1C(=O)N1C2CNCC1C2	6.60
CC1(C)CC(C(=O)N2CC3CC(C2)N3)C1	6.28
O=C(c1ccc(Br)o1)N1C2CNCC1C2 [6-(2-bromorofuran-5-yl)carbonyl-3,6-diazabicyclo[3.1.1]heptane]	6.59
CCC(C)C(=O)N1CC2CC(C1)N2 (stereo not drawn)	6.62
O=C(C1CC=CCC1)N1CC2CC(C1)N2 (stereo not drawn)	6.41
O=C(C1CC2CCC1C2)N1CC2CC(C1)N2 (stereo not drawn)	6.66

Target: T3, Human α4β2 (Homo sapiens, UniProt P17787+P43681)
T3 construct: host or cells: SH-EP1
Experiment: Competition binding to human α4β2 receptors in membranes of SH-EP1/human α4β2 cells ([3H]-nicotine)
Details: Human α4β2 Ki, membrane competition binding

Compound	pKi
O=C(c1cnco1)N1C2CNCC1C2	7.14
CC(=O)N1CC2CC(C1)N2 [3-methylcarbonyl-3,6-diazabicyclo[3.1.1]heptane]	6.77
CC(C)CC(=O)N1CC2CC(C1)N2	7.47
O=C([C@H]1C[C@H]1F)N1C2CNCC1C2	8.43
O=C(CC1C=CCC1)N1CC2CC(C1)N2 (stereo not drawn)	7.96
CCCOC(=O)N1CC2CC(C1)N2 [3-propoxycarbonyl-3,6-diazabicyclo[3.1.1]heptane]	7.62
O=C(C1CCC1)N1CC2CC(C1)N2	7.55
O=C(c1ccc(Cl)o1)N1C2CNCC1C2 [6-(2-chlorofuran-5-yl)carbonyl-3,6-diazabicyclo[3.1.1]heptane]	7.42
O=C(C1CC=CC1)N1CC2CC(C1)N2	7.43
CC1(C)CC(C(=O)N2CC3CC(C2)N3)C1	7.16
O=C(c1ccc(Br)o1)N1C2CNCC1C2 [6-(2-bromorofuran-5-yl)carbonyl-3,6-diazabicyclo[3.1.1]heptane]	7.18
Cc1nocc1C(=O)N1CC2CC(C1)N2	7.28
COCCC(=O)N1CC2CC(C1)N2 [3-(2-methoxyethyl)carbonyl-3,6-diazabicyclo[3.1.1]heptane]	7.14
O=C(C1CCC1)N1C2CNCC1C2 [6-cyclobutylcarbonyl-3,6-diazabicyclo[3.1.1]heptane]	7.85
CC1CC1C(=O)N1C2CNCC1C2 (stereo not drawn)	7.34
Cc1cc(C(=O)N2C3CNCC2C3)no1	7.00
O=C([C@H]1C[C@@H]1F)N1C2CNCC1C2	8.66
O=C(CC1CC1)N1CC2CC(C1)N2	7.19
O=C(OCCF)N1CC2CC(C1)N2 [3-(2-fluoroethoxy)carbonyl-3,6-diazabicyclo[3.1.1]heptane]	8.23
O=C(C1CCCC1)N1CC2CC(C1)N2	6.77
COCC(=O)N1CC2CC(C1)N2	7.10
O=C(C1CC2CCC1C2)N1CC2CC(C1)N2 (stereo not drawn)	7.22

Same assay, conditions: membrane competition binding, read-out: Human α4β2 Ki

Compound	pKi
O=C(C1C2C3CCC(C3)C12)N1C2CNCC1C2 (stereo not drawn)	5.72
CC1(C)CC(C(=O)N2C3CNCC2C3)C1	6.12
O=C(CCOc1ccc(F)cc1)N1CC2CC(C1)N2	6.18
O=C(C1CCOCC1)N1C2CNCC1C2	5.70
O=C(c1ccno1)N1CC2CC(C1)N2 [3-(isoxazol-5-yl)carbonyl-3,6-diazabicyclo[3.1.1]heptane]	6.82
O=C(Cc1c[nH]c2ccccc12)N1CC2CC(C1)N2	6.12
C[C@@H]1C[C@@H]1C(=O)N1CC2CC(C1)N2	7.66
O=C(c1cc(Cl)cc(Cl)c1)N1C2CNCC1C2	5.92
O=C(Cc1c[nH]c2ccccc12)N1C2CNCC1C2	5.66
O=C(C1CCOCC1)N1CC2CC(C1)N2	6.49
O=C(CC1CCOCC1)N1CC2CC(C1)N2	5.55
Cc1ncoc1C(=O)N1C2CNCC1C2	6.85
O=C(C1CC=CCC1)N1C2CNCC1C2 (stereo not drawn)	5.92
O=C(COc1ccc(Cl)c(Cl)c1)N1CC2CC(C1)N2	6.48
CC(C)OC(=O)N1CC2CC(C1)N2 [3-isopropoxycarbonyl-3,6-diazabicyclo[3.1.1]heptane]	6.89
CO[C@H](C(=O)N1C2CNCC1C2)c1ccccc1	5.15
O=C(CCOc1ccc(F)cc1)N1C2CNCC1C2	5.92
O=C(c1cnc(Cl)c(Cl)c1)N1CC2CC(C1)N2	5.82
O=C(CC1CCCO1)N1C2CNCC1C2 (stereo not drawn)	5.70
Cn1c(C(=O)N2CC3CC(C2)N3)cc2ccccc21	6.38
O=C(NCc1ccc(Cl)c(Cl)c1)N1C2CNCC1C2	5.51

Compound	pKi
O=C(c1ccnc(Cl)c1)N1C2CNCC1C2	6.01
O=C(C1Cc2ccccc21)N1CC2CC(C1)N2 (stereo not drawn)	5.70
O=C(C1CCCC1)N1C2CNCC1C2	6.38
COCCOC(=O)N1CC2CC(C1)N2 [3-methoxyethoxycarbonyl-3,6-diazabicyclo[3.1.1]heptane]	6.92
O=C(C1CCOC1)N1CC2CC(C1)N2 (stereo not drawn) [3-(tetrahydrofuran-3-yl)carbonyl-3,6-diazabicyclo[3.1.1]heptane]	6.57
O=C(C1Cc2ccccc2C1)N1C2CNCC1C2	5.52
O=C(C1CNC1)N1CC2CC(C1)N2	6.37
O=C(c1ccnc(Cl)c1)N1CC2CC(C1)N2	6.35
O=C([C@H]1CCCO1)N1CC2CC(C1)N2	6.40
O=C(C1Cc2ccccc21)N1C2CNCC1C2 (stereo not drawn)	5.03
CC(C)CC(=O)N1C2CNCC1C2	6.92
O=C(COc1ccc(F)cc1)N1C2CNCC1C2	5.89
O=C(c1cc(Cl)cc(Cl)c1)N1CC2CC(C1)N2	5.48
O=C(CC1CCCC1)N1CC2CC(C1)N2	6.36
O=C(COCc1ccccc1)N1CC2CC(C1)N2	6.00
O=C(CC1CCOC1)N1CC2CC(C1)N2 (stereo not drawn)	6.62
CC1(C)C(C(=O)N2C3CNCC2C3)C1(C)C	4.96
O=C(C1CC2CCC1C2)N1C2CNCC1C2 (stereo not drawn)	5.77
CCC(C)C(=O)N1CC2CC(C1)N2 (stereo not drawn)	6.82
Cn1c(C(=O)N2C3CNCC2C3)cc2ccccc21	5.54
CC(C)C(=O)N1C2CNCC1C2	6.59

Compound	pKi
O=C(COc1ccc(F)cc1)N1CC2CC(C1)N2	6.44
O=C(COCc1ccccc1)N1C2CNCC1C2	5.85
CC(=O)NCCC(=O)N1CC2CC(C1)N2	5.47
Cc1cc(C(=O)N2CC3CC(C2)N3)no1	5.96
O=C(N1CC2CC(C1)N2)C1(C(F)(F)F)CCC1	5.20
O=C([C@@H]1CCCO1)N1C2CNCC1C2	6.12
O=C(C1Cc2ccccc2C1)N1CC2CC(C1)N2	6.10
COCC(=O)N1C2CNCC1C2	6.39
O=C(CC1C=CCC1)N1C2CNCC1C2 (stereo not drawn)	6.82
O=C(C1CC=CC1)N1C2CNCC1C2	6.09
Cc1nocc1C(=O)N1C2CNCC1C2	5.96
CCC(C)C(=O)N1C2CNCC1C2 (stereo not drawn)	6.54
O=C(CC1CCOCC1)N1C2CNCC1C2	5.48
CO[C@H](C(=O)N1CC2CC(C1)N2)c1ccccc1	6.02
COCCC(=O)N1C2CNCC1C2 [6-(2-methoxyethyl)carbonyl-3,6-diazabicyclo[3.1.1]heptane]	6.43
O=C([C@@H]1CCCO1)N1CC2CC(C1)N2	6.43
O=C(CC1CCCO1)N1CC2CC(C1)N2 (stereo not drawn)	5.54
CC(=O)NCCCC(=O)N1CC2CC(C1)N2	5.72
O=C(C1CC=CCC1)N1CC2CC(C1)N2 (stereo not drawn)	6.92
